We go through one compound from publication PMC7203153, “Rational identification and characterisation of peptide ligands for targeting polysialic acid” (Scientific Reports, 2020).

Where a SMILES comes first, the peptide text is derived from it.

A short description of this assay: Fluorescence anisotropy (FA) assay of peptide–PSA binding. Also noted: species or system Escherichia coli. The method, then: Peptides (Table 2) were synthesized at >95% purity (confirmed with HPLC) by Biomatik (see Supplementary Information). All peptides were N-terminally acetylated and C-terminally labelled with tetramethylrhodamine dye (TAMRA). TAMRA was chosen as a label due to its pH insensitivity compared to FAM (fluorescein) and related dyes commonly used for fluorescence assays. Experiments were conducted in black 384-well plates with non-binding surface (NBS, Corning, Inc.) to minimize background binding and enhance signal-to-noise ratio in the fluorescence-based binding assay. Titrations were carried out through addition of TAMRA-labelled peptide (8 μL, final concentration 20 nM) to CA (72 μL, final concentrations 0–1500 μM) in PBS, pH 7.4 (10 mM phosphate, 100 mM NaCl), and solutions were incubated with agitation to equilibrium at room temperature (3 h, ~20 °C). Parallel and perpendicular intensities were subsequently measured at 530 nm excitation (band width 5 nm) and 580 nm emission (band width 20 nm) in fluorescence polarization mode with a Tecan Infinite M1000 Pro plate reader. Total fluorescence intensities were also measured as a control for fluorophore properties with target binding; fluorescence intensities of free peptide were determined to be approximately equivalent to intensities with peptide–CA mixtures. At higher concentrations of free CA (control with no peptide addition), attenuation of detected light differed in parallel and perpendicular planes, so respective intensities were subtracted from peptide–CA intensities prior to anisotropy calculations. […] Unique samples were screened in at least triplicate within each titration experiment, and each peptide titration was carried out at least twice. In experimental repeats, peptide locations on plates were varied to prevent location-specific effects, if any, and different combinations of peptides were assessed at once. Anisotropies were calculated from corrected parallel and perpendicular intensities, and values were fit to the four-parameter logistic binding model[70] in MATLAB. Prior to curve fitting, anisotropy values for each peptide were transformed through subtraction of minimum values to enhance comparison between peptides. The resulting translations in binding curves were identical, within error, to change in anisotropy curves obtained through subtraction of anisotropy of free labelled peptide. Bmax and KD values obtained were used in the calculation of Bmax/KD ratios for comparison to microarray intensity values, and the Pearson correlation coefficient (r) was determined.

Turning to `CC(=O)N[C@@H](Cc1ccccc1)C(=O)N[C@@H](CCCCN)C(=O)NCC(=O)N[C@@H](CCCNC(=N)N)C(=O)N[C@H](C(=O)N[C@@H](CO)C(=O)N1CCC[C@H]1C(=O)N[C@@H](CCCCN)C(=O)N[C@H](C(=O)NCC(=O)N[C@@H](C)C(=O)N1CCC[C@H]1C(=O)N[C@H](C(=O)N[C@@H](C)C(=O)N[C@H](C(N)=O)[C@@H](C)O)C(C)C)[C@@H](C)O)[C@@H](C)O` [I-P24] (Ac-FKGRTSPKTGAPVAT-NH2), the “binding to PSA in competitive FA assay with Neu5Ac” value (500 µM PSA (CA), Neu5Ac 0–150 mM, PBS pH 7.4) was “largely maintained”. Also, the Kd (FA titration, N-acetylated, C-terminally TAMRA-labelled peptide 20 nM, CA 0–1500 μM, PBS pH 7.4 (10 mM phosphate, 100 mM NaCl), 3 h, ~20 °C, four-parameter logistic fit, at least two independent experiments, at least triplicate, * = accuracy likely poor (SE > KD)) was found to be 521 µM. For the setting “from FA curve fits, among the peptides characterised with FA”, the “Bmax/KD ratio (binding potential)” value is recorded as “highest”.
